Results from patent US20210052600A1, “THERAPEUTIC AGENTS FOR STRESS URINARY INCONTINENCE AND INCOTINENCE OF FECES” (Takeda Pharmaceutical Company Limited, priority 2017, published 2021).
Counter-ions that a name gives are not always drawn. Like-named read-outs stand apart in the source and are kept apart here.

Legend:
[1] = system: urethral resistance increasing effect of Compound A′; assay: Influence of antagonists (SB 242084, methiothepin) on urethral resistance increasing effect of Compound A′ in rats; assay type: in vivo, rat; settings: mean ± SEM; for LPP Increase: Post minus Pre; for LPP Pre: before administration
Procedure: Ninety female rats of SD strain were used. […] Isoflurane inhalation was added during the surgery, if necessary. In the experiment with intrathecal administration, the dura mater was exposed by laminectomy and then partially opened by incision, through which a catheter (PE-10) filled with saline was then implanted at the level of the L6-S1 site, followed by the closing of the incision. After opening of the abdomen, a catheter (PE-90) was inserted into the bladder. In order to secure reduced urethral resistance, unilateral nerve to iliococcygeus and pubococcygeus muscles was transected. For intraduodenal administration, another catheter (PE-50) was inserted into the duodenum in advance. The abdominal muscle and skin were each closed with sutures. Two (right and left) sites of abdominal skin near the diaphragm were cut to expose abdominal muscle. The bladder was emptied through the catheter, followed by the injection of 0.2 to 0.3 mL of Evans blue solution. Change in intravesical pressure was recorded using the bladder catheter via a pressure transducer, an electric signal amplifier, and an analog-to-digital converter. While change in intravesical pressure was recorded, the presence or absence of fluid leakage from the urethral orifice was observed under the electrical stimulation of the exposed abdominal muscle using an electrical stimulator and an isolator. […] The peak of the intravesical pressure during the stimulation of the abdominal muscle was measured, and the lowest pressure at which the fluid leakage was observed among the trials was defined as LPP for the electrical abdominal muscle stimulation method. In order to examine whether the urethral resistance increasing effect of Compound A′ is based on its agonistic potency on 5-HT2C receptors, SB 242084, methiothepin, or a vehicle was intravenously administered, and Compound A′ or a vehicle was intraduodenally administered 5 minutes later. SB 242084 was dissolved in a mixed solution of N,N-dimethylacetamide and polyethylene glycol 400 (1:1) and administered at 0.03 mg/0.5 mL/kg, 0.1 mg/0.5 mL/kg and 0.3 mg/0.5 mL/kg. Methiothepin was dissolved in saline and administered at 0.03 mg/0.5 mL/kg. 0.1 mg/0.5 mL/kg and 0.3 mg/0.5 mL/kg. Compound A′ was suspended in 0.5% MC and administered at 3 mg/mL/kg. LPP was measured again 30 minutes after Compound A′ administration. In order to examine where Compound A′ works in the body to increase urethral resistance, the blocking of the effect of Compound A′ was confirmed by blocking the functions of Compound A′ by giving methiothepin at a particular site in the body. Particularly, in the experiment with intrathecal administration, methiothepin or a vehicle was intrathecally administered, and Compound A′ or a vehicle was intraduodenally administered 5 minutes later. Methiothepin was dissolved in saline and 20 μL of the obtained solution was administered. Compound A′ was suspended in 0.5% MC and administered at 3 mg/mL/kg. LPP was measured again 30 minutes after Compound A′ administration.
Regarding change in LPP before and after drug administration, the differences between the mean values of the Compound A′-treated and vehicle-treated groups were analyzed by the Student's t test or the Welch's test. In order to analyze the influence of the antagonists on the effect of Compound A′, the differences between the mean values of the SB 242084- or methiothepin- and Compound A′-administered group and the vehicle- and Compound A′-administered group were analyzed by the one-tailed Williams' test.

[2] = cited from earlier work
[3] = Plasma concentrations in rats 30 minutes after oral administration (effective plasma concentration at LPP10); settings: rat
Procedure: Ten female rats of SD strain were anesthetized with isoflurane. In order to secure the same conditions as those for drug-administered animals, their spinal cord was transected at the T8-T9 (the eighth thoracic cord—the ninth thoracic cord) level. Then, a cannula for blood collection was inserted into the femoral artery. […] These drugs were each dissolved in 0.5% MC. Thirty minutes after oral administration, up to 250 μL of blood was collected from the femoral artery or the tail vein and treated with heparin. The collected blood was immediately cooled on ice and centrifuged under conditions involving 3,000 rpm and 4° C. for 10 minutes to obtain plasma. The plasma samples were stored under conditions of −80° C. until drug quantification.
After thawing of the plasma samples, the internal standard compound was added thereto, and the mixture was then centrifuged under conditions of 5,250 rpm. The drug contained in 60 μL of the supernatant was quantified by LC-MS/MS.

[4] = Comparison of plasma concentrations for urethra-closing effect and anti-obesity effect (analysis of Examples 1-9 and literature)
urethra-closing response = assay: MT (threshold inducing urethra-closing response) under transcranial magnetic stimulation in healthy female volunteers; assay type: in vivo, human; settings: for MT of the urethra-closing response in response to TMS, Mean / Rate of change from baseline of MT of the urethra-closing response in response to TMS, Mean: 40 mg capsule single oral dose
Procedure: The test subjects were healthy female volunteers having a body weight of at least 45 kg (average: 50.91 kg, standard deviation: 3.346) and a BMI value of 18.5 kg/m^2 to 25.0 kg/m^2 (average: 19.57 kg/m^2, standard deviation: 0.929).
A washout period of at least 7 days was provided between the treatments.
A capsule containing 40 mg of duloxetine was orally administered as duloxetine together with water. A placebo capsule containing saccharose and spherical starch granules was orally administered as a placebo for duloxetine together with water.
Specifically, during the TMS, the output of a magnetic stimulator (Magstim Rapid Square, manufactured by Magstim Co., Ltd.) was increased by 5% each time using 110 mm double cone coil, and the minimum output at which urethra-closing response occurred abruptly was determined and used as MT (%). The urethra-closing response was detected by measuring contractile responses within the urethra. The contractile response within the urethra was measured using Duet Logic G2 (manufactured by Mediwatch Ltd.) and UniTip (manufactured by Unisensor AG). MT was measured again after administration of each drug, and the rate of change (%) from the baseline was calculated. The rate of change was determined by dividing MT after administration of each drug by MT before administration.

urethral resistance [5] = assay: Rat urethral resistance (LPP) measured by high speed infusion of saline into the bladder; assay type: in vivo; settings: mean ± SEM; for LPP Post: 30 minutes after administration; for LPP Increase: Post minus Pre; for LPP Pre: before administration
Source text: The rats were anesthetized with isoflurane. Their spinal cord was transected at the T8-T9 (the eighth thoracic cord—the ninth thoracic cord) level. After opening of the bladder dome, two polyethylene tubes (PE-100) were inserted into the bladder. The incised portion of the bladder was closed with sutures, and the other incisions were also closed. The rats were placed in Bollman cages. The catheter for intravesical pressure measurement was connected to a pressure transducer, while the catheter for saline filling was connected to a syringe filled with Evans Blue-dyed saline. Change in intravesical pressure was recorded using the pressure transducer via an electric signal amplifier and an analog-to-digital converter. After recovery of the animals from anesthesia, the intravesical pressure measurement was started, and saline was infused at a speed of 0.1 mL/sec into the bladder using an infusion pump. The infusion was stopped when the leakage of the saline from the urethral orifice was observed. Immediately thereafter, the bladder was emptied by releasing the pressure. In this operation, the peak of recorded intravesical pressure during the saline infusion was used as LPP in this Example. This measurement was repeated, and the average LPP from the last three measurements was used as the LPP value of the trial. The mean from 2 such trials was used as a Pre value. 0.5% MC was used as the vehicle. […] The difference in LPP from the Pre value (increased amount of LPP) was calculated. Regarding change in LPP before and after drug administration, the differences between the mean values of the drug-treated and vehicle-treated groups were analyzed by the one-tailed Williams' test.

[6] = system: urethra-closing reflex response; assay: Urethra-closing reflex response induced by intravesical pressure rise in rats; assay type: in vivo, rat; settings: 20 mg/kg i.d., mean ± SEM
Procedure: Thirty-two female rats of SD strain were used. The rats were anesthetized with urethane. Isoflurane inhalation was added during the surgery, if necessary. Their spinal cord was transected at the T8-T9 (the eighth thoracic cord—the ninth thoracic cord) level to eliminate the reflex voiding and to inhibit the transition from the urine storage phase to the voiding phase in the voiding cycle. After opening of the abdomen, the bladder neck was ligated with suture, and a catheter (PE-100) was inserted into the bladder. The bladder catheter was connected to a pressure transducer and a saline-containing reservoir via three-way stopcocks. A microtip transducer catheter was inserted from the urethral orifice toward the bladder so that its transducer was inserted into the urethra. Local change in pressure within the urethra (intraurethral pressure) was recorded via an electric signal amplifier and an analog-to-digital converter. […] Then, the reservoir was brought back to the original position to adjust the intravesical pressure to its baseline. Such change in intraurethral pressure induced by intravesical pressure rise was repeatedly measured, and the mean value from the last 2 trials was used as a Pre value. The vehicle used was 0.5% MC. […] Thirty minutes after administration, the change in intraurethral pressure induced by intravesical pressure rise was measured again and used as a Post value. The average value before intravesical pressure rise was subtracted from the average value during intravesical pressure rise, and the subtracted value was used as urethra-closing reflex response. The ratio of the Post value to the Pre value was calculated.

urethral resistance [7] = assay: Urethral resistance (LPP) during intravesical pressure rise by electrical stimulation of rat abdominal muscle; assay type: in vivo; settings: mean ± SEM; for LPP Post: 30 minutes after administration; for LPP Increase: Post minus Pre; for LPP Pre: before administration
Procedure: Fifty six female rats of Sprague-Dawley strain (hereinafter, referred to as “SD strain”) were used. The rats were anesthetized with urethane, and their spinal cord was transected at the T8-T9 (the eighth thoracic cord—the ninth thoracic cord) level for the elimination of reflex voiding. Isoflurane inhalation was added, if necessary. After opening of the abdomen, a catheter (PE-100) was inserted into the bladder. In order to secure reduced urethral resistance, unilateral nerve to iliococcygeus and pubococcygeus muscles was transected. For intraduodenal administration, another catheter (PE-50) was inserted into the duodenum in advance. The abdominal muscle and skin were each closed with sutures. Two (right and left) sites of abdominal skin near the diaphragm were cut to expose abdominal muscle. The bladder was emptied through the catheter, followed by the injection of 0.2 to 0.3 mL of 0.1% Evans blue solution. Change in intravesical pressure was recorded using the bladder catheter via a pressure transducer, an electric signal amplifier, and an analog-to-digital converter. While change in intravesical pressure was recorded, the presence or absence of fluid leakage from the urethral orifice was observed under the electrical stimulation of the exposed abdominal muscle using an electrical stimulator and an isolator. […] The peak of the intravesical pressure during the stimulation of the abdominal muscle was measured, and the lowest pressure at which the fluid leakage was observed among the trials was defined as leak point pressure (hereinafter, referred to as “LPP”) for the electrical abdominal muscle stimulation method and used as an index for urethral resistance. Each drug was evaluated for its effect by comparing LPP before drug administration with that after drug administration. […] The drugs were suspended in 0.5% methylcellulose solution (MC). […] LPP was measured again 30 minutes after administration. Regarding change in LPP before and after drug administration, the differences between the mean values of the drug-treated and vehicle groups were analyzed by the one-tailed Williams' test.

[8] = methiothepin 10 μg intrathecal + Compound A′ 3 mg/kg i.d.
[9] = methiothepin 30 μg intrathecal + Compound A′ 3 mg/kg i.d.
[10] = methiothepin 0.03 mg/kg i.v. + Compound A′ 3 mg/kg i.d.
[11] = methiothepin 100 μg intrathecal + Compound A′ 0 mg/kg i.d.
[12] = methiothepin 100 μg intrathecal + Compound A′ 3 mg/kg i.d.
[13] = methiothepin 0.1 mg/kg i.v. + Compound A′ 3 mg/kg i.d.
[14] = methiothepin 0.3 mg/kg i.v. + Compound A′ 0 mg/kg i.d.
[15] = methiothepin 0.3 mg/kg i.v. + Compound A′ 3 mg/kg i.d.

With `CSc1ccc2c(c1)C(N1CCN(C)CC1)Cc1ccccc1S2.O=C(O)/C=C\C(=O)O` (stereo not shown) [methiothepin, methiothepin maleate] the “LPP Post” value ([1]; methiothepin 10 μg intrathecal + Compound A′ 3 mg/kg i.d., 30 minutes after Compound A′) was 69.4 ± 10.4 cmH2O, the “LPP Increase” value [1, 8] was 35.3 ± 9.8 cmH2O and the “LPP Pre” value [1, 8] was 34.1 ± 3.2 cmH2O. The “LPP Post” value ([1]; methiothepin 30 μg intrathecal + Compound A′ 3 mg/kg i.d., 30 minutes after Compound A′) was 52.1 ± 8.6 cmH2O, the “LPP Increase” value [1, 9] was 11.1 ± 6.5 cmH2O and the “LPP Pre” value [1, 9] was 41.0 ± 3.6 cmH2O. The “LPP Increase” value [1, 10] was 17.9 ± 4.3 cmH2O, the “LPP Pre” value [1, 10] was 44.4 ± 2.5 cmH2O and the “LPP Post” value ([1]; methiothepin 100 μg intrathecal + Compound A′ 0 mg/kg i.d., 30 minutes after i.d. administration) was 40.5 ± 3.2 cmH2O. The “LPP Increase” value [1, 11] was −5.3 ± 3.0 cmH2O, the “LPP Pre” value [1, 11] was 45.8 ± 4.8 cmH2O and the “LPP Post” value ([1]; methiothepin 100 μg intrathecal + Compound A′ 3 mg/kg i.d., 30 minutes after Compound A′) was 45.9 ± 5.5 cmH2O. For the same compound, the “LPP Increase” value [1, 12] was 5.6 ± 3.5 cmH2O, the “LPP Pre” value [1, 12] was 40.4 ± 3.0 cmH2O and the “LPP Post” value ([1]; methiothepin 0.1 mg/kg i.v. + Compound A′ 3 mg/kg i.d., 30 minutes after Compound A′) was 59.9 ± 3.7 cmH2O. The “LPP Increase” value [1, 13] was 9.5 ± 3.3 cmH2O, the “LPP Pre” value [1, 13] was 50.4 ± 4.4 cmH2O and the “LPP Post” value ([1]; methiothepin 0.3 mg/kg i.v. + Compound A′ 0 mg/kg i.d., 30 minutes after i.d. administration) was 44.0 ± 7.1 cmH2O. The “LPP Increase” value [1, 14] was −2.0 ± 2.5 cmH2O, the “LPP Pre” value [1, 14] was 46.0 ± 9.6 cmH2O and the “LPP Post” value ([1]; methiothepin 0.3 mg/kg i.v. + Compound A′ 3 mg/kg i.d., 30 minutes after Compound A′) was 40.6 ± 4.9 cmH2O. The “LPP Increase” value [1, 15] was −2.2 ± 2.9 cmH2O and the “LPP Pre” value [1, 15] was 42.9 ± 3.8 cmH2O.

In the case of `C[C@H]1CNCCc2ccc(Cl)cc21` [Compound B, (R)-8-chloro-1-methyl-2,3,4,5-tetrahydro-1H-3-benzazepine], the “average plasma concentration in a day (steady state) giving a body weight lowering effect greater than placebo by 3.8% in humans” value ([2]; 10 mg b.i.d. (launched dose), free form) is listed as 43 ng/mL, the “average plasma concentration in a day (steady state) giving a body weight lowering effect greater than placebo by 2.6% in humans” value ([2]; 10 mg q.d., free form) is listed as 24 ng/mL and the blood concentration ([2]; after a single administration of a sustained release formulation containing 20 mg) is listed as 39 ng/mL. The “plasma concentration Cmin” value ([2]; launched dose 10 mg bid) was 26 ng/mL, the blood concentration ([2]; sustained release formulation containing 20 mg once daily) was 74 ng/mL and the concentration at 30 min ([3]; female, SD, plasma, po, 4 mg/kg) was 32.9 ± 18 ng/mL. For the same compound, the “plasma concentration at LPP10” value ([3]; measured concentration multiplied by ratio between dosage used and LPP10) was 9.9 ng/mL and the “plasma concentration estimated to show sufficient effects on urethra-closing function in humans” value ([4]; second analysis: 14-fold lower than 43 ng/mL) was “around 3 ng/mL”.

With `CNCC[C@H](Oc1cccc2ccccc12)c1cccs1` [Duloxetine, duloxetine hydrochloride] the “MT of the urethra-closing response in response to TMS, Mean” value (urethra-closing response; 0.5 hr) was 67.4%, the “Rate of change from baseline of MT of the urethra-closing response in response to TMS, Mean” value (from here on “Rate of change”) (urethra-closing response; 0.5 hr) was −0.4% and the “MT of the urethra-closing response in response to TMS, Mean” value (urethra-closing response; 2 hr) was 62.0%. For the same compound, the “Rate of change” value (urethra-closing response; 2 hr) was −5.9%, the “MT of the urethra-closing response in response to TMS, Mean” value (urethra-closing response; 6 hr) was 56.4% and the “Rate of change” value (urethra-closing response; 6 hr) was −11.8%. The “MT of the urethra-closing response in response to TMS, Mean” value (urethra-closing response; Predose) was 67.8%, the “maximum change from baseline in MT in response to TMS” value (urethra-closing response; 40 mg group, at 6 hours post dose) was −11.8% and the “LPP Post” value (urethral resistance [5]; 5 mg/kg p.o.) was 64.1 ± 5.5 cmH2O. The “LPP Increase” value (urethral resistance [5]; 5 mg/kg p.o.) was 4.2 ± 1.7 cmH2O, the “LPP Pre” value (urethral resistance [5]; 5 mg/kg p.o.) was 59.9 ± 5.1 cmH2O and the “LPP Post” value (urethral resistance [5]; 10 mg/kg p.o.) was 67.6 ± 3.5 cmH2O. For the same compound, the “LPP Increase” value (urethral resistance [5]; 10 mg/kg p.o.) was 7.7 ± 2.2 cmH2O, the “LPP Pre” value (urethral resistance [5]; 10 mg/kg p.o.) was 59.8 ± 3.8 cmH2O and the “LPP Post” value (urethral resistance [5]; 20 mg/kg p.o.) was 69.8 ± 4.0 cmH2O. The “LPP Increase” value (urethral resistance [5]; 20 mg/kg p.o.) was 11.9 ± 3.7 cmH2O, the “LPP Pre” value (urethral resistance [5]; 20 mg/kg p.o.) was 57.9 ± 2.7 cmH2O and the “LPP Post” value (urethral resistance [5]; 40 mg/kg p.o.) was 73.3 ± 5.3 cmH2O. The “LPP Increase” value (urethral resistance [5]; 40 mg/kg p.o.) was 13.1 ± 2.9 cmH2O, the “LPP Pre” value (urethral resistance [5]; 40 mg/kg p.o.) was 60.2 ± 3.1 cmH2O and the “Urethra-closing reflex response Post” value ([6]; 30 minutes after administration, intravesical pressure rise by 50 cm H2O) was 8.66 ± 1.34 cmH2O. For the same compound, the “Urethra-closing reflex response Pre” value ([6]; before administration, intravesical pressure rise by 50 cm H2O) was 4.88 ± 0.86 cmH2O, the “Urethra-closing reflex response Ratio (Post/Pr)” value ([6]; ratio of Post value to Pre value) was 2.00 ± 0.28 and the “LPP Post” value (urethral resistance [7]; 5 mg/kg i.d.) was 38.3 ± 2.7 cmH2O. The “LPP Increase” value (urethral resistance [7]; 5 mg/kg i.d.) was 1.7 ± 1.4 cmH2O, the “LPP Pre” value (urethral resistance [7]; 5 mg/kg i.d.) was 36.6 ± 3.0 cmH2O and the “LPP Post” value (urethral resistance [7]; 10 mg/kg i.d.) was 39.1 ± 2.9 cmH2O. For the same compound, the “LPP Increase” value (urethral resistance [7]; 10 mg/kg i.d.) was 3.7 ± 2.3 cmH2O, the “LPP Pre” value (urethral resistance [7]; 10 mg/kg i.d.) was 35.3 ± 3.0 cmH2O and the “LPP Post” value (urethral resistance [7]; 20 mg/kg i.d.) was 46.6 ± 5.7 cmH2O. For the same compound, the “LPP Increase” value (urethral resistance [7]; 20 mg/kg i.d.) was 9.7 ± 3.5 cmH2O, the “LPP Pre” value (urethral resistance [7]; 20 mg/kg i.d.) was 36.9 ± 2.8 cmH2O and the “maximal urethral resistance increasing effect (LPP elevation) in rats” value ([4]; summary of Examples 2 and 5) was “around 10 cmH2O”.
